In general, IC90 refers to the concentration at which the effect reaches the 90% level.

Our source for the IC90 values is ChEMBL document CHEMBL1134255, “Synthesis and evaluation of efavirenz (Sustiva) analogues as HIV-1 reverse transcriptase inhibitors: replacement of the cyclopropylacetylene side chain” (2001).

Test [1] has as its system Human immunodeficiency virus 1. As to the kind of experiment: Antiviral activity was evaluated against wild-type HIV-1 virus. It is filed as functional.
The test system of test [2] is Human immunodeficiency virus type 1 reverse transcriptase (Human immunodeficiency virus 1), Q72547 [K103N].

In test [1], `N#CCCOC1(C(F)(F)F)OC(=O)Nc2ccc(Cl)cc21` (stereo not drawn) yielded an IC90 of more than 1500 nM.
Regarding `O=C1Nc2ccc(Cl)cc2C(C#Cc2ccco2)(C(F)(F)F)O1` (stereo not drawn), the IC90 in test [1] came to 3.8 nM; in test [2] it was 152 nM.
The matching figures for `O=C1Nc2ccc(F)c(F)c2C(OCC=C(Cl)Cl)(C(F)(F)F)O1` (stereo not drawn): 6.35 nM and 183 nM.
`CCCOC1(C(F)(F)F)OC(=O)Nc2ccc(Cl)cc21` (stereo not drawn) showed an IC90 in test [1] of 5.81 nM.
Turning to `CC(C)=CCOC1(C(F)(F)F)OC(=O)Nc2ccc(F)cc21` (stereo not drawn), the IC90 in test [1] worked out at 2.98 nM; in test [2] it was 107 nM.
The matching figures for `O=C1Nc2ccc(Cl)cc2C(C#Cc2ccoc2)(C(F)(F)F)O1` (stereo not drawn): 3.8 nM and 322 nM.
The matching figures for `CCCCOC1(C(F)(F)F)OC(=O)Nc2ccc(Cl)cc21` (stereo not drawn): 10.2 nM and 989 nM.
Turning to `O=C1Nc2ccc(F)c(F)c2C(C#Cc2ccccn2)(C(F)(F)F)O1` (stereo not drawn), it took 6.78 nM to reach the 90% level in test [1] (IC90).
On to `O=C1Nc2ccc(F)c(F)c2C(C#Cc2cccnc2)(C(F)(F)F)O1` (stereo not drawn), for which the IC90 in test [1] worked out at 2.23 nM; in test [2], 59.3 nM.
Take `O=C1Nc2ccc(Cl)cc2C(OCc2cccnc2)(C(F)(F)F)O1` (stereo not drawn): the 90% effect concentration (IC90) in test [1] is 75.3 nM.
Same read-out and setting: the result for `C=CCOC1(C(F)(F)F)OC(=O)Nc2ccc(Cl)cc21` (stereo not drawn) reads 3.9 nM.
The same measure, in the same setting: the value for `O=C1Nc2ccc(Cl)cc2C(C#Cc2ccncc2)(C(F)(F)F)O1` (stereo not drawn) was 102 nM.
`O=C1Nc2ccc(Cl)cc2C(C#Cc2ccsc2)(C(F)(F)F)O1` (stereo not drawn): the IC90 in test [1] is 4.47 nM; in test [2], 106 nM.
The like results for `CC(C)CCOC1(C(F)(F)F)OC(=O)Nc2ccc(Cl)cc21` (stereo not drawn) were, in that order, 10.1 nM and 286 nM.
`O=C1Nc2ccc(F)cc2C(C#Cc2ccco2)(C(F)(F)F)O1` (stereo not drawn): the IC90 in test [1] was determined as 2.58 nM.
On to `CC(C)=CCOC1(C(F)(F)F)OC(=O)Nc2ccc(F)c(F)c21` (stereo not drawn), for which the IC90 in test [1] amounted to 1.54 nM; in test [2], 65 nM.
The molecule `O=C1Nc2ccc(F)cc2C(C#Cc2ccccn2)(C(F)(F)F)O1` (stereo not drawn) had an IC90 in test [1] of 12.2 nM.
On the same count and under the same terms, the value for `O=C1Nc2ccc(Cl)cc2C(OCC2CC2)(C(F)(F)F)O1` (stereo not drawn) was 7.7 nM.
Same read-out and setting: the result for `O=C1Nc2ccc(Cl)cc2C(C#Cc2cncs2)(C(F)(F)F)O1` (stereo not drawn) reads 6.69 nM.
Turning to `O=C1Nc2ccc(Cl)cc2C(C#Cc2ccccn2)(C(F)(F)F)O1` (stereo not drawn), the IC90 was 5.39 nM in test [1] and 1110 nM in test [2].
The like results for `O=C1Nc2ccc(F)cc2C(C#Cc2ccoc2)(C(F)(F)F)O1` (stereo not drawn) were, in that order, 2.52 nM and 369 nM.
The like results for `C/C=C\COC1(C(F)(F)F)OC(=O)Nc2ccc(Cl)cc21` (stereo not drawn) were, in that order, 4.35 nM and 237 nM.
The matching figures for `C/C=C/COC1(C(F)(F)F)OC(=O)Nc2ccc(Cl)cc21` (stereo not drawn): 5.6 nM and 404 nM.
`O=C1Nc2ccc(F)c(F)c2C(C#Cc2ccco2)(C(F)(F)F)O1` (stereo not drawn) returned an IC90 in test [1] of 3.79 nM.
The same measure, in the same setting: the result for `O=C1Nc2ccc(Cl)cc2C(OCc2ccccc2)(C(F)(F)F)O1` (stereo not drawn) reads 17.9 nM.
Still for that read-out and setting: the value for `O=C1Nc2ccc(Cl)cc2C(OCC(F)(F)C(F)(F)F)(C(F)(F)F)O1` (stereo not drawn) was 651 nM.
Still for that read-out and setting: the result for `CCOC1(C(F)(F)F)OC(=O)Nc2ccc(Cl)cc21` (stereo not drawn) reads 18.3 nM.
In test [1], `O=C1Nc2ccc(F)cc2C(OCC=C(Cl)Cl)(C(F)(F)F)O1` (stereo not drawn) gave an IC90 of 11.9 nM.
For `O=C1Nc2ccc(F)c(F)c2C(C#Cc2ccoc2)(C(F)(F)F)O1` (stereo not drawn), the values for the IC90 in test [1] and in test [2] were 3.21 nM and 280 nM, respectively.
Turning to `C/C=C/COC1(C(F)(F)F)OC(=O)Nc2ccc(F)cc21` (stereo not drawn), the results for the IC90 in test [1] and in test [2] were 8.85 nM and 1150 nM, respectively.
The like results for `O=C1Nc2ccc(F)c(F)c2C(C#Cc2ccsc2)(C(F)(F)F)O1` (stereo not drawn) were, in that order, 2.34 nM and 139 nM.
With `O=C1Nc2ccc(F)cc2C(C#Cc2cccs2)(C(F)(F)F)O1` (stereo not drawn), in test [1], the IC90 came to 2.93 nM.
`O=C1Nc2ccc(Cl)cc2C(OCCC2CC2)(C(F)(F)F)O1` (stereo not drawn) had an IC90 in test [1] of 8.04 nM.
As for `O=C1Nc2ccc(F)c(F)c2C(C#Cc2cccs2)(C(F)(F)F)O1` (stereo not drawn), the IC90 was determined as 2.23 nM in test [1] and 156 nM in test [2].
The matching figures for `O=C1Nc2ccc(Cl)cc2C(C#Cc2cccnc2)(C(F)(F)F)O1` (stereo not drawn): 3.97 nM and 145 nM.
`COCCOC1(C(F)(F)F)OC(=O)Nc2ccc(Cl)cc21` (stereo not drawn) showed an IC90 in test [1] of 61.4 nM.
Same read-out and setting: the result for `O=C1Nc2ccc(Cl)cc2C(OCCc2ccccc2)(C(F)(F)F)O1` (stereo not drawn) reads 167 nM.
As for `O=C1Nc2ccc(F)cc2C(C#Cc2cccnc2)(C(F)(F)F)O1` (stereo not drawn), the IC90 was 2.56 nM in test [1] and 329 nM in test [2].
As for `CC#CCOC1(C(F)(F)F)OC(=O)Nc2ccc(Cl)cc21` (stereo not drawn), the IC90 amounted to 3.13 nM in test [1] and 310 nM in test [2].
The like results for `O=C1Nc2ccc(Cl)cc2C(OCC=C(Cl)Cl)(C(F)(F)F)O1` (stereo not drawn) were, in that order, 9.5 nM and 242 nM.
The matching figures for `CC(C)=CCOC1(C(F)(F)F)OC(=O)Nc2ccc(Cl)cc21` (stereo not drawn): 2.68 nM and 83 nM.
In turn, `C=CCCOC1(C(F)(F)F)OC(=O)Nc2ccc(Cl)cc21` (stereo not drawn) registered an IC90 in test [1] of 13.7 nM. That is a double-digit nanomolar value.
Turning to `O=C1Nc2ccc(F)cc2C(C#Cc2ccsc2)(C(F)(F)F)O1` (stereo not drawn), the IC90 in test [1] stood at 2.55 nM; in test [2], 193 nM.
The matching figures for `C=CCOC1(C(F)(F)F)OC(=O)Nc2ccc(F)c(F)c21` (stereo not drawn): 6.47 nM and 1620 nM.
